The text below walks through data of publication PMC10617776, “Bi-steric mTORC1 inhibitors induce apoptotic cell death in tumor models with hyperactivated mTORC1” (The Journal of Clinical Investigation, 2023).

SMILES strings stand for the structures.

Assay [1] has as its target T1, mTOR (mTORC1 and mTORC2) (Homo sapiens, UniProt P42345).
T1 construct: endogenous mTOR in HCV29 TSC1-null cells
The assay is described as follows: immunoblot of mTORC1/mTORC2 substrate phosphorylation in cells ([…] h treatment). The class given is cell-based.

Assay [2] has as its system T2, 855T Tsc1-.
T2 construct: Tsc1-null
The assay is described as follows: cells. Also on record: cell proliferation by crystal violet staining, absorbance 540 nm. As to conditions: 72 h.

Assay [3] relates to T3, 634T Tsc1-.
T3 construct: Tsc1-null
The assay is described as follows: cells. Set-up: cell proliferation by crystal violet staining, absorbance 540 nm. As to conditions: 72 h.

The test system of assay [4] is T4, KTP-267-2B8 Tsc1-.
T4 construct: Tsc1-null
The assay is described as follows: cells. Also on record: cell proliferation by crystal violet staining, absorbance 540 nm. As to conditions: 72 h.

Assay [5] concerns T5, 705 Tsc2-.
T5 construct: Tsc2-null
The assay is described as follows: cells. Also on record: cell proliferation by crystal violet staining, absorbance 540 nm. As to conditions: 72 h.

For assay [6], the system named is T6, 857T Tsc1+.
T6 construct: Tsc1 wild-type
As to the kind of experiment: cells. Set-up: cell proliferation by crystal violet staining, absorbance 540 nm. As to conditions: 72 h.

The subject of assay [7] is T7, TTJ Tsc2-.
T7 construct: Tsc2-null
As to the kind of experiment: cells. As to conditions: 72 h. Also on record: cell proliferation by crystal violet staining, absorbance 540 nm.

Assay [8] has as its system T8, TTJ Tsc2+.
T8 construct: Tsc2 add-back
The assay is described as follows: cells. Set-up: cell proliferation by crystal violet staining, absorbance 540 nm. As to conditions: 72 h.

Assay [9] relates to T9, KTP-269-3C4 Tsc1-.
T9 construct: Tsc1-null
As to the kind of experiment: cells. Set-up: cell proliferation by crystal violet staining, absorbance 540 nm. As to conditions: 72 h.

The test system of assay [10] is T10, RT4 TSC1-.
T10 construct: TSC1-null
As to the kind of experiment: cells. Also on record: cell proliferation by crystal violet staining, absorbance 540 nm. As to conditions: 72 h.

Assay [11] has as its system T11, 105K Tsc2-.
T11 construct: Tsc2-null
As to the kind of experiment: cells. Set-up: cell proliferation by crystal violet staining, absorbance 540 nm. As to conditions: 72 h.

The subject of assay [12] is T12, 705 TSC2+.
T12 construct: TSC2 add-back
The assay is described as follows: cells. As to conditions: 72 h. Also on record: cell proliferation by crystal violet staining, absorbance 540 nm.

Assay [13] concerns T13, 97-1 TSC1+.
T13 construct: TSC1 add-back
The assay is described as follows: cells. Set-up: cell proliferation by crystal violet staining, absorbance 540 nm. To be noted: 72 h.

Assay [14] deals with T14, HCV29 TSC1+.
T14 construct: TSC1 add-back
As to the kind of experiment: cells. As to conditions: HCV-29, 72 h. Also on record: cell proliferation by crystal violet staining, absorbance 540 nm. As for the experimental part:
(§1) The effect of the compounds on cell proliferation was measured by crystal violet staining. Cells were plated in 96-well plates at a density of 500–2,000 cells (sextuples per condition). The next day, cells were treated with concentrations (0–100 nM) prepared by serial dilution. After 3 days of treatment, cells were fixed by 10% formalin for 10 minutes at room temperature. 0.05% crystal violet solution was added and incubated for 15 minutes at room temperature. Absorbance was read using Synergy HT (BioTek) at 540 nm. The inhibition curves and IC50 values were calculated by GraphPad Prism 9.0. TSC1-null HCV29 (BLCA cell line) and its TSC1–add-back derivative were treated with rapamycin, MLN0128, and bi-steric mTORC1 inhibitors.

The test system of assay [15] is T15, HCV29 TSC1-.
T15 construct: TSC1-null
As to the kind of experiment: cells. Also on record: cell proliferation by crystal violet staining, absorbance 540 nm. As to conditions: HCV-29, 72 h. As for the experimental part: as §1

Assay [16] concerns T16, SNU886 TSC2+.
T16 construct: TSC2 add-back
As to the kind of experiment: cells. Also on record: cell proliferation by crystal violet staining, absorbance 540 nm. To be noted: SNU-886, 72 h. As for the experimental part: as §1

In assay [17] the test system is T17, KTP-267-1B1 Tsc1-.
T17 construct: Tsc1-null
The assay is described as follows: cells. Set-up: cell proliferation by crystal violet staining, absorbance 540 nm. As to conditions: 72 h. The procedure:
as §1

Assay [18] has as its system T18, 97-1 TSC1-.
T18 construct: TSC1-null
The assay is described as follows: cells. Also on record: cell proliferation by crystal violet staining, absorbance 540 nm. As to conditions: 72 h.

The subject of assay [19] is T19, 105K Tsc2+.
T19 construct: Tsc2 add-back
The assay is described as follows: cells. Also on record: cell proliferation by crystal violet staining, absorbance 540 nm. To be noted: 72 h.

With `CC(C)n1nc(-c2ccc3oc(N)nc3c2)c2c(N)ncnc21` [MLN0128], in assay [1], the “immunoblot of mTORC1/mTORC2 substrate phosphorylation in cells (4 h treatment)” value fell in the range of 10 to 30 nM. The half-maximal inhibitory concentration (IC50) in assay [2] is 31.6 nM; in assay [3] it was 60.3 nM; in [4], 28.2 nM; in [5], 50.1 nM; in assay [6] it was 70.8 nM; in [7] it was 63.1 nM. In addition, the IC50 in assay [8] was 50.1 nM; in [9] it was 26.9 nM; in assay [10], 63.1 nM; in assay [11] it was 41.7 nM; in [12], 50.1 nM; in [13] it was 46.8 nM. In addition, the IC50 came to 35.5 nM in [14]; 31.6 nM in [15]; 44.7 nM in [16]; 44.7 nM in assay [17]; 39.8 nM in assay [18]; 79.4 nM in assay [19].
